Where two headings read alike, the source gives them in different places.

We go through 1 compound from EP0877740B1, “THIOL DERIVATIVES WITH METALLOPEPTIDASE INHIBITORY ACTIVITY” (ZAMBON GROUP S.p.A., priority 1995, dated 1997).

The assay has as its target T1, NEP (Rattus norvegicus, UniProt P07861).
T1 sequence (P07861 1-750): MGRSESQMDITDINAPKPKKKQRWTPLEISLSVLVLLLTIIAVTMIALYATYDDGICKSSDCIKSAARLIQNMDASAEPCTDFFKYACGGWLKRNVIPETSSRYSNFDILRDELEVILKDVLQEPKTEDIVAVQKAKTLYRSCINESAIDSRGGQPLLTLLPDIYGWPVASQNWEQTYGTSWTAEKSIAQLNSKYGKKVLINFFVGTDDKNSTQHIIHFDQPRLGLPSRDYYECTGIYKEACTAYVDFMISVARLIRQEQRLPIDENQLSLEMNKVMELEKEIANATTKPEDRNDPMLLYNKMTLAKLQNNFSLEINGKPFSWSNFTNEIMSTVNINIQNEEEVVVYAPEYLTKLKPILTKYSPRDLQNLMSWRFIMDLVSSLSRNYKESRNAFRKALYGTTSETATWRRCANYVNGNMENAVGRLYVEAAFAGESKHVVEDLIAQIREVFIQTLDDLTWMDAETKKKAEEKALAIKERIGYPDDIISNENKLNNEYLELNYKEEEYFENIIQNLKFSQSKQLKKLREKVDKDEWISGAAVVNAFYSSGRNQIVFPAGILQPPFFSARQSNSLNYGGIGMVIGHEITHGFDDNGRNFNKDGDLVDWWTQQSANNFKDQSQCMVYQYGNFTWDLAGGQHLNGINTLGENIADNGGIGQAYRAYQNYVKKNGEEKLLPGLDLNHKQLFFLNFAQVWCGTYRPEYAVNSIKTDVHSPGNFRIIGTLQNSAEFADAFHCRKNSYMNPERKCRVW
Put plainly: Ex vivo NEP-inhibitory activity in kidney homogenates of treated SHR (GAAP substrate). On the set-up: After the removal of the kidneys from SHR, the renal tissue was homogenized; from tissue; host or cells: kidney homogenate of spontaneously hypertensive rats (SHR); species or system spontaneously hypertensive rats (SHR). The conditions noted are these: rat, SHR kidneys; for inhibition at 30 µmol/kg: oral 30 µmoles/kg. The method, then:
The ex-vivo ACE/NEP-inhibitory activity, in particular, was determined by evaluating the enzymatic activity in tissue homogenates (lung and kidney for ACE and NEP activity, respectively) from spontaneously hypertensive rats (SHR) treated with the tested compounds by intravenous or oral route.
The ex vivo NEP-inhibitory activity was evaluated according to the procedure reported in the literature by M. Orlowsky et al., in Biochemistry 1981, 20, 4942-4950.
The inhibitory activity of the compounds of formula I was evaluated in kidneys of spontaneously hypertensive rats (SHR), 5 minutes after i.v. injection (0.6 and 21 µmoles/kg) and 30 minutes, 60 minutes and 4 hours after oral administration (30 µmoles/kg) of the tested compounds.
After the removal of the kidneys from SHR, the renal tissue was homogenized and incubated for 15 minutes at 37°C in the presence of Glutaryl-Ala-Ala-Phe-2-naphthylamide (GAAP), as a substrate, and aminopeptidase M at pH 7.6.
The reaction was stopped by adding an aqueous solution at 10% of trichloroacetic acid.
The released 2-naphthylamine was determined by adding fast garnet dye (2 ml).
Enzyme reaction rates were determined by measuring the increase in the optical density at 524 nm (OD524) with respect to a standard obtained with 2-naphthylamine complexed with fast garnet.
The NEP-inhibitory activity of the tested compounds was expressed as percentage of NEP-inhibition in SHR kidneys.

The term inhibition denotes how much of the control response was suppressed. Where the note is “iv, i.v. 0.6 µmoles/kg, 5 minutes after injection”, `O=C(N[C@@H](Cc1ccc(-c2nccs2)cc1)C(=O)O)[C@@H](CS)Cc1ccccc1` [Compound 16, N-[(2S)-3-mercapto-2-phenylmethylpropionyl]-4-(2-thiazolyl)-L-phenylalanine] showed an inhibition at 0.6 µmol/kg of 34%. Under “iv, i.v. 21 µmoles/kg, 5 minutes after injection”, this compound came in with an inhibition at 21 µmol/kg of 49%. Moreover, the inhibition at 30 µmol/kg runs as follows: (30 minutes after administration, read-out: NEP-inhibition (kidneys) 30 minutes) 55%; (60 minutes after administration, read-out: NEP-inhibition (kidneys) 60 minutes) 39%; (4 hours after administration, read-out: NEP-inhibition (kidneys) 4 hours) 40%.
